Assay results reported in PMC8983078 (Drug Discovery Today, 2022).
Where a name gives a salt, the structure may show the parent alone. Read-outs that look alike come from different tables or passages of the source.

What was measured:
[1] = system: phospholipidosis (PLD); settings: read-out: PLD EC50; NPC qHTS in-house database; cited from earlier work
[2] = target: T1, hERG channel (Homo sapiens, UniProt Q12809); settings: cited from earlier work
[3] = system: SARS-CoV-2; settings: cited from earlier work; for SARS-CoV-2 CPE EC50: Vero E6 cells infected for 72 h, NPC qHTS in-house database
[4] = system: autophagy; settings: in words; screening data; cited from earlier work
[5] = target: T1, hERG channel
[6] = system: Middle East respiratory syndrome (MERS)-CoV; settings: cited from earlier work
[7] = system: SARS-CoV-1; settings: cited from earlier work
[8] = cited from earlier work
[9] = system: COVID-19; settings: patients hospitalized with COVID-19, observational; cited from earlier work
[10] = tier stated per drug in the text, based on hERG curve rank

T1 sequence (Q12809 whole entry): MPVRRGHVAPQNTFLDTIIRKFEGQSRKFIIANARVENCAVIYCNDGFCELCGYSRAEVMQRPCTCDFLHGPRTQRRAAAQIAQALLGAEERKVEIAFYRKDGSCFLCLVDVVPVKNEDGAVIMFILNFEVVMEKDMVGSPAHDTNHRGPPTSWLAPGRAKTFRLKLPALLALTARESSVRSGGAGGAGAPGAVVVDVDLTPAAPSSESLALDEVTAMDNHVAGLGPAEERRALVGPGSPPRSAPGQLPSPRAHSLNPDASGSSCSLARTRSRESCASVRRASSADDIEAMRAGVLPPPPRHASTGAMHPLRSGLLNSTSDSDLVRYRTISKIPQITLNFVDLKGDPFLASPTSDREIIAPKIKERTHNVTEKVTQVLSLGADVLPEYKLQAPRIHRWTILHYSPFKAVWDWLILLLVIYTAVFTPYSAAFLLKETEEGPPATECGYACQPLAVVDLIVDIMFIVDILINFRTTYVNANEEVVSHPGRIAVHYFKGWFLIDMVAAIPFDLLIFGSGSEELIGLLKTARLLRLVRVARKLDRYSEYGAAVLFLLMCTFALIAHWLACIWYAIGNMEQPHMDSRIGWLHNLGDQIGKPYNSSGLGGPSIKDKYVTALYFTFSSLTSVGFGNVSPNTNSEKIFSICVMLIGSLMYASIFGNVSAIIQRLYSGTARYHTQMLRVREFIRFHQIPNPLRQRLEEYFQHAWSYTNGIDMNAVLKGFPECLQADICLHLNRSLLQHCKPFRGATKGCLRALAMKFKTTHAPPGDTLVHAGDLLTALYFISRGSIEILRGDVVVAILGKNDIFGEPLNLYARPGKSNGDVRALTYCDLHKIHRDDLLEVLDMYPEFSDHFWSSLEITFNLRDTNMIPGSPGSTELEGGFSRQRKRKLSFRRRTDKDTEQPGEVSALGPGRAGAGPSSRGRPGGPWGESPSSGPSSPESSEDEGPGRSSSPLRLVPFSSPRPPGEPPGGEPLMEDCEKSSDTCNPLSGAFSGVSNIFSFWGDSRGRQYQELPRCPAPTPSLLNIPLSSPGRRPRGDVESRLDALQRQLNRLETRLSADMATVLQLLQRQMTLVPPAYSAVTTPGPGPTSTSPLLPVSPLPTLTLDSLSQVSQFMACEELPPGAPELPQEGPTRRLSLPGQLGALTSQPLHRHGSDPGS

CCN(CC)CCCC(C)Nc1ccnc2cc(Cl)ccc12 (stereo not drawn) [Chloroquine]
EC50 [1]: 11 µM

CCN(CCO)CCCC(C)Nc1ccnc2cc(Cl)ccc12 (stereo not drawn) [Hydroxychloroquine sulfate]
hERG IC50 ([2]; NPC qHTS in-house database): Inactive | SARS-CoV-2 CPE EC50 [3]: Inactive

CC(=O)Oc1ccccc1C(=O)Nc1ncc([N+](=O)[O-])s1 [Nitazoxanide]
hERG IC50 ([2]; NPC qHTS in-house database): Inactive | activity in the autophagy assay [4]: no activity | activity in the CPE assay ([3]; in words, screening data): moderate activity

O=C(CCCN1CCC(O)(c2ccc(Cl)cc2)CC1)c1ccc(F)cc1 [haloperidol]
hERG liability [5]: high (key: low (curve rank < 1.0); medium (curve rank between 1.0 and 4.0); high (curve rank > 4.0))

O=C(Nc1ccc([N+](=O)[O-])cc1Cl)c1cc(Cl)ccc1O [Niclosamide]
hERG IC50 ([2]; NPC qHTS in-house database): Inactive | activity in the autophagy assay [4]: moderate activity | EC50 [1]: 1 µM

CN(C)CCCN1c2ccccc2Sc2ccc(Cl)cc21 [Chlorpromazine]
hERG liability [5, 10]: high (high (curve rank > 4.0)) | viral replication of MERS-CoV [6]: inhibit in vitro viral replication | viral replication of SARS-CoV-1 [7]: inhibit in vitro viral replication | TdP risks ([8]; in vivo): known TdP risks | EC50 [1]: 10 µM

CC[C@H]1OC(=O)[C@H](C)[C@@H](O[C@H]2C[C@@](C)(OC)[C@@H](O)[C@H](C)O2)[C@H](C)[C@@H](O[C@@H]2O[C@H](C)C[C@H](N(C)C)[C@H]2O)[C@](C)(O)C[C@@H](C)CN(C)[C@H](C)[C@@H](O)[C@]1(C)O [Azithromycin]
hERG IC50 ([2]; NPC qHTS in-house database): Inactive | hERG inhibition ([2]; in words, screening data): no hERG inhibition

NC(=O)c1nc(F)c[nH]c1=O [Favipiravir]
SARS-CoV-2 CPE EC50 [3]: Inactive

CN1CCCCC1CCN1c2ccccc2Sc2ccc([S+](C)[O-])cc21 (stereo not drawn) [mesoridazine]
hERG liability [5]: high (key: low (curve rank < 1.0); medium (curve rank between 1.0 and 4.0); high (curve rank > 4.0)) | TdP risks ([8]; in vivo): known TdP risks

NC(N)=Nc1nc(CSCCC(N)=NS(N)(=O)=O)cs1 [Famotidine]
clinical outcomes [9]: improved clinical outcomes | SARS-CoV-2 CPE EC50 [3]: Inactive

COc1ccc(CCN2CCC(Nc3nc4ccccc4n3Cc3ccc(F)cc3)CC2)cc1 [Astemizole]
TdP risks [8]: known TdP risks | arrhythmias ([8]; in vivo): fatal arrythmias

CC[C@@H](C)[C@H]1O[C@]2(CC[C@@H]1C)C[C@@H]1C[C@@H](C/C=C(\C)[C@@H](O[C@H]3C[C@H](OC)[C@@H](O[C@H]4C[C@H](OC)[C@@H](O)[C@H](C)O4)[C@H](C)O3)[C@@H](C)/C=C/C=C3\CO[C@@H]4[C@H](O)C(C)=C[C@@H](C(=O)O1)[C@]34O)O2 [Ivermectin]
hERG liability [5, 10]: moderate | IC50 ([2]; read-out: hERG IC50, NPC qHTS in-house database): 9.7 µM | EC50 [1]: 17 µM
